Measured values published in PMC7999658, “Characterization of P-Glycoprotein Inhibitors for Evaluating the Effect of P-Glycoprotein on the Intestinal Absorption of Drugs” (Pharmaceutics, 2021).
Where two headings read alike, the source gives them in different places. One block for each compound: values may come before it.

Tests used:
Caco-2 cell monolayers = assay: Caco-2 monolayer transport study: paracellular marker permeability and mass balance (% recovery); type: in vitro ADME, human; conditions: Caco-2 monolayers, lucifer yellow 100 μM
[1] = topotecan 2 mg/kg po; for concentration at 30 min: FVB, mouse, oral, 2 mg/kg
Description: Food and water were available ad libitum.
The flow rate was 1.0 mL/min.

P-gp [2] = biological target: T1, P-gp (Homo sapiens, UniProt P08183); assay: Inhibition of P-gp-mediated transport of paclitaxel across Caco-2 cell monolayers; type: cell-based
T1 construct: host or cells: Caco-2
Description: Caco-2 cells from Dainippon Sumitomo Pharma (Osaka, Japan) were cultured in DMEM supplemented with 10% heat-inactivated fetal bovine serum, 1% antibiotic-antimycotic, 1% nonessential amino acids, and 2 mM L-glutamine [31]. Cells were maintained at 37 °C in 5% CO2/95% air and passaged upon reaching approximately 80% confluence using 0.25% trypsin/1 mM EDTA solution. For transport experiments, Caco-2 cells were grown on a polyethylene terephthalate insert (0.4 μm pore size, 12 mm diameter) at 1.0 × 10^5 cells/well, and cultured for 14–21 days with the replacement of the medium once every 2 days. Caco-2 cells used in this study were within the passage range of 55 through 70.
(§1) The efflux ratio (ER) was calculated using Equation (3) ER = Papp,BA/Papp,AB(3) where Papp,AB and Papp,BA are the Papp values for AP-to-BL and BL-to-AP transport, respectively.
(§2) IC50 values of Papp,BA and ER were also determined using Equation (4).

P-gp [3] = system: P-gp; design: method as in PMID 18678495; conditions: cited from earlier work
BCRP = biological target: T2, BCRP (Homo sapiens, UniProt Q9UNQ0); assay: Inhibition of BCRP-mediated transport of mitoxantrone across Caco-2 cell monolayers; conditions: Caco-2 monolayers
T2 sequence (Q9UNQ0 1-655): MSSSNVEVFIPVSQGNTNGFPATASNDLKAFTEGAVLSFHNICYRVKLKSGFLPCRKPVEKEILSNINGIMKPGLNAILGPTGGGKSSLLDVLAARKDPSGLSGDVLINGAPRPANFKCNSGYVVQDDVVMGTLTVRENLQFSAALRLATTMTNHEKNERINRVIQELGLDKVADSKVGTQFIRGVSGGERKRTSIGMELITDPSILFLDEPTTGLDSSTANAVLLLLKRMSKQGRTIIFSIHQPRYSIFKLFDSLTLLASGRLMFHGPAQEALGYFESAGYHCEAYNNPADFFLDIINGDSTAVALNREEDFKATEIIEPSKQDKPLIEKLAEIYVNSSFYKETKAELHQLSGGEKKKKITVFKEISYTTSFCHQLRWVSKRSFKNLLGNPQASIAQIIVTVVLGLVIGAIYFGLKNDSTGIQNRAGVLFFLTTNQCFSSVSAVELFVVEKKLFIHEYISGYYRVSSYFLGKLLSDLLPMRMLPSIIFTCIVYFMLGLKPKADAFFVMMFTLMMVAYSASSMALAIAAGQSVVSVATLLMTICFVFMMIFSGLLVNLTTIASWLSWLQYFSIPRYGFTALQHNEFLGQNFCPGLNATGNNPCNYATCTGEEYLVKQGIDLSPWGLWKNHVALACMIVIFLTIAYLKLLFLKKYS
Description: For transport experiments, Caco-2 cells were grown on a polyethylene terephthalate insert (0.4 μm pore size, 12 mm diameter) at 1.0 × 10^5 cells/well, and cultured for 14–21 days with the replacement of the medium once every 2 days. Caco-2 cells used in this study were within the passage range of 55 through 70.
as §1, §2

[4] = for BA of paclitaxel: paclitaxel 20 mg/kg po vs 5 mg/kg IV
[5] = paclitaxel 10 mg/kg po
in vivo [6] = conditions: FVB, mouse
in vivo [7] = conditions: FVB, mouse, oral, 10 mg/kg
[8] = Caco-2 monolayers, 50% decrease of efflux ratio, read-out: IC50 on ER of paclitaxel
[9] = Caco-2 monolayers, paclitaxel 5 μM, 50% decrease of Papp,BA, read-out: IC50 on Papp,BA of paclitaxel
[10] = Caco-2 monolayers, paclitaxel 5 μM, inhibitor concentration to achieve 50% increase of Papp,AB, read-out: IC50 on Papp,AB of paclitaxel
[11] = IC50 on Papp,BA of mitoxantrone, mitoxantrone 5 μM, 50% decrease of Papp,BA
[12] = paclitaxel 20 mg/kg po, WT mice
[13] = portal vein plasma, po, 20 mg/kg
[14] = systemic (abdominal vein) plasma, po, 20 mg/kg
[15] = male, portal vein plasma, po, 20 mg/kg
[16] = male, systemic (abdominal vein) plasma, po, 20 mg/kg
[17] = systemic (abdominal vein) plasma
[18] = male, systemic (abdominal vein) plasma

T1 sequence (P08183 whole entry): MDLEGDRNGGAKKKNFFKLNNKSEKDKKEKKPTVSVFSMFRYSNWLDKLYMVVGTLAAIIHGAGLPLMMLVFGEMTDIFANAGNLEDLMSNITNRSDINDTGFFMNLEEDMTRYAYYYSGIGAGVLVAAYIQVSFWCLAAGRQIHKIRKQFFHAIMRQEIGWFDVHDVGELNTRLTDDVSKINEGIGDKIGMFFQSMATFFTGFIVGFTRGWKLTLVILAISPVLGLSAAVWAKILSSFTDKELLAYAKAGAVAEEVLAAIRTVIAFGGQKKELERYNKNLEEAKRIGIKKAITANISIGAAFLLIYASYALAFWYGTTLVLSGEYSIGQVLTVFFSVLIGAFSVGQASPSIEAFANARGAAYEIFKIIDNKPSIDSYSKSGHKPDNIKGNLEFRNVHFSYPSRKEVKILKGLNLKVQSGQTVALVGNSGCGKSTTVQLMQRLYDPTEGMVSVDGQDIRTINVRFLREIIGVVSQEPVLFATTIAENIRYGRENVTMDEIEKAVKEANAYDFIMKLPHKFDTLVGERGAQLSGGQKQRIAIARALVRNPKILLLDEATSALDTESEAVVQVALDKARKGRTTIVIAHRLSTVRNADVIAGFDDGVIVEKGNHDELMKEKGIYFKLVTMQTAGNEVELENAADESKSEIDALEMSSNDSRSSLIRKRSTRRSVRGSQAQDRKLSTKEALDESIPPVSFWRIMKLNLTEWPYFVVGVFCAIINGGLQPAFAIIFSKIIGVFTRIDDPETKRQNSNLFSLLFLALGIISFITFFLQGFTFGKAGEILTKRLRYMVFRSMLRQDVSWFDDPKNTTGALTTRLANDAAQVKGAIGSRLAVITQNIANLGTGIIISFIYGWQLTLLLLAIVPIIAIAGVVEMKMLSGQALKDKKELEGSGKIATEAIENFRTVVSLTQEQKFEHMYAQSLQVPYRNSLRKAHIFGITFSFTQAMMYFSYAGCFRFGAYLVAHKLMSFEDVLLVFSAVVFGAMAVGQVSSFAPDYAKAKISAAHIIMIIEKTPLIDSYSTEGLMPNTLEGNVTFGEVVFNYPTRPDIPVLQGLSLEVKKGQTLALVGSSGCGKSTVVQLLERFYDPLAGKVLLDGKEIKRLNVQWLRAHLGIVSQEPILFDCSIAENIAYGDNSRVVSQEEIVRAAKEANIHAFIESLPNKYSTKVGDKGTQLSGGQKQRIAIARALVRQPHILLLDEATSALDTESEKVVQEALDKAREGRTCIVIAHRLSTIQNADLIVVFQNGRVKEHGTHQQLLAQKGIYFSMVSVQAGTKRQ

Papp,AB (Caco-2 cell monolayers): 0.1 ×10⁻⁶ cm/s
Compound: lucifer yellow

concentration at 30 min ([1]; plasma (portal vein), Cpv of topotecan, mdr1a/1b KO mice): 236 ± 30 nM
concentration at 30 min ([1]; plasma (systemic circulation, abdominal vein), Csys of topotecan, bcrp KO mice): 398 ± 88 nM
concentration at 30 min ([1]; plasma (systemic circulation, abdominal vein), Csys of topotecan, mdr1a/1b KO mice): 207 ± 28 nM
concentration at 30 min ([1]; portal vein plasma, Cpv of topotecan, bcrp KO mice): 469 nM
concentration at 30 min ([1]; male, plasma (systemic circulation, abdominal vein), Csys of topotecan, WT mice, no inhibitor): 179 ± 25 nM
concentration at 30 min ([1]; male, portal vein plasma, Cpv of topotecan, WT mice, no inhibitor): 196 ± 29 nM
V of topotecan, bcrp KO mice versus WT mice ([1]; 30 min): approximately 4.1 fold
V of topotecan, bcrp KO mice versus mdr1a/1b KO mice ([1]; 30 min): ~2.4 fold
Absorption Rate V of topotecan ([1]; 30 min, WT mice, no inhibitor): 1.29 nmol/min/kg
Cpv − Csys of topotecan ([1]; 30 min, WT mice, no inhibitor): 17.1 ± 5.7 nM
Absorption Rate V of topotecan ([1]; 30 min, bcrp KO mice): 5.30 nmol/min/kg
Cpv of topotecan ([1]; 30 min, bcrp KO mice): 469 ± 64 nM
Cpv − Csys of topotecan ([1]; 30 min, bcrp KO mice): 70.5 ± 20 nM
Absorption Rate V of topotecan ([1]; 30 min, mdr1a/1b KO mice): 2.17 nmol/min/kg
Cpv − Csys of topotecan ([1]; 30 min, mdr1a/1b KO mice): 28.9 ± 8.4 nM
Compound: CC[C@@]1(O)C(=O)OCc2c1cc1n(c2=O)Cc2cc3c(CN(C)C)c(O)ccc3nc2-1 [topotecan]

Hill coefficient, ER of paclitaxel (P-gp [2]; Caco-2 monolayers): 3.41 ± 0.28
basal-to-apical transport of paclitaxel (P-gp [2]; Caco-2 monolayers): significantly decreased
IC50 (P-gp [2]; [8]): 46 ± 19 nM
IC50 (P-gp [2]; [9]): 64 ± 40 nM
IC50 (P-gp [2]; [10]): 234 ± 61 nM
Compound: COc1cc2c(cc1OC)CN(CCc1ccc(NC(=O)c3cc(OC)c(OC)cc3NC(=O)c3cnc4ccccc4c3)cc1)CC2 [XR9576, N-(2-([(4-(2-[3,4-Dihydro-6,7-dimethoxy-2(1H)-isoquinolinyl]ethyl)phenyl)amino]carbonyl)-4,5-dimethoxyphenyl)-3-quinolinecarboxamide]
IC50 for P-gp-mediated Hoechst 33342 transport lower than that for BCRP-mediated Hoechst 33342 transport (P-gp [3]): approximately 20.1 fold
Hill coefficient, ER of mitoxantrone (BCRP): 0.44 ± 0.05
IC50 (BCRP; [11]): 1000 ± 45 nM
IC50 (BCRP; read-out: IC50 on ER of mitoxantrone, 50% decrease of efflux ratio): 531 ± 162 nM

Hill coefficient, ER of paclitaxel (P-gp [2]; Caco-2 monolayers): 1.68 ± 0.38
IC50 (P-gp [2]; [8]): 871 ± 277 nM
IC50 (P-gp [2]; [9]): 4500 ± 84 nM
IC50 (P-gp [2]; [10]): 2680 ± 53 nM
Compound: COc1cc(C(=O)C(=O)N2CCCC[C@H]2C(=O)OC(CCCc2cccnc2)CCCc2cccnc2)cc(OC)c1OC [VX-710, (S)-N-(2-Oxo-2-(3,4,5-trimethoxyphenyl)-acetyl)piperidine-2-carboxylic acid 1,7-bis(3-pyridyl)-4-heptyl ester]
Hill coefficient, ER of mitoxantrone (BCRP): 0.46 ± 0.12
IC50 (BCRP; IC50 on ER of mitoxantrone, 50% decrease of efflux ratio): 1640 ± 520 nM
IC50 (BCRP; [11]): 2680 ± 31 nM

transport of paclitaxel in Caco-2 cells on addition of inhibitor (P-gp [2]; 0.01-10 μM inhibitor): not changed
Compound: CCOC/C=C/c1ccc(-c2nc(-c3ccc(NC(C)C)cc3)c(-c3ccc(NC(C)C)cc3)[nH]2)cc1 [OC144-093, (E)-4,4’-(2-(4-[3-ethoxyprop-1-en-1-yl]phenyl)-1H-imidazole-4,5-diyl)bis(N-isopropylaniline)]
Hill coefficient, ER of mitoxantrone (BCRP): 3.61 ± 0.41

t1/2 of paclitaxel ([4]; paclitaxel 5 mg/kg IV, WT mice): 2.38 h
AUCpv of paclitaxel, mdr1a/1b KO mice versus WT mice ([4]; paclitaxel 20 mg/kg po): 3.3 fold
AUCsys of paclitaxel, mdr1a/1b KO mice higher than WT mice ([4]; paclitaxel 20 mg/kg po): approximately 2.8 fold
BA of paclitaxel, mdr1a/1b KO mice versus WT mice ([4]; paclitaxel 20 mg/kg po): 2.5 fold
Cmax of paclitaxel in portal vein, mdr1a/1b KO mice versus WT mice ([4]; paclitaxel 20 mg/kg po): 3.5 fold
Cmax of paclitaxel in systemic circulation, mdr1a/1b KO mice versus WT mice ([4]; paclitaxel 20 mg/kg po): 2.7 fold
FaFg of paclitaxel, mdr1a/1b KO mice versus WT mice ([4]; paclitaxel 20 mg/kg po): 4.0 fold
BA of paclitaxel ([4]; WT mice): 11.7%
BA of paclitaxel ([4]; mdr1a/1b KO mice): 29.0%
FaFg of paclitaxel [4, 12]: 16.6%
Fh of paclitaxel [4, 12]: 70.6
FaFg of paclitaxel ([4]; paclitaxel 20 mg/kg po, mdr1a/1b KO mice): 66.3%
t1/2 of paclitaxel ([4]; paclitaxel 20 mg/kg po, mdr1a/1b KO mice, pv): 1.25 h
Cmax ([4]; read-out: Cmax of paclitaxel, paclitaxel 20 mg/kg po, mdr1a/1b KO mice, pv): 2520 nM
V of paclitaxel, mdr1a/1b KO mice versus WT mice ([5]; 10 min): approximately 3.5 fold
Absorption Rate V of paclitaxel ([5]; 10 min, WT mice, no inhibitor): 15.7 nmol/min/kg
Cpv of paclitaxel ([5]; 10 min, WT mice, no inhibitor): 439 ± 98 nM
Cpv − Csys of paclitaxel ([5]; 10 min, WT mice, no inhibitor): 216 ± 80 nM
Absorption Rate V of paclitaxel ([5]; 10 min, mdr1a/1b KO mice): 54.3 nmol/min/kg
Cpv of paclitaxel ([5]; 10 min, mdr1a/1b KO mice): 967 ± 191 nM
Cpv − Csys of paclitaxel ([5]; 10 min, mdr1a/1b KO mice): 749 ± 165 nM
V of paclitaxel, mdr1a/1b KO mice versus WT mice ([5]; 30 min): approximately 5.1 fold
Absorption Rate V of paclitaxel ([5]; 30 min, WT mice, no inhibitor): 12.4 nmol/min/kg
Cpv − Csys of paclitaxel ([5]; 30 min, WT mice, no inhibitor): 165 ± 61 nM
Absorption Rate V of paclitaxel ([5]; 30 min, mdr1a/1b KO mice): 63.7 nmol/min/kg
Cpv − Csys of paclitaxel ([5]; 30 min, mdr1a/1b KO mice): 847 ± 144 nM
AUC (in vivo [6]; plasma, iv, 5 mg/kg): 2.66 µM·h
MRT (in vivo [6]; plasma, iv, 5 mg/kg): 1.47 h
Vd (in vivo [6]; plasma, iv, 5 mg/kg): 4.15 L/kg
clearance (in vivo [6]; plasma, iv, 5 mg/kg): 36.7 mL/min/kg
half-life (in vivo [6]; plasma, iv, 5 mg/kg): 2.12 h
AUC (in vivo [6]; [13]): 6.58 µM·h
MRT (in vivo [6]; [13]): 2.16 h
Tmax (in vivo [6]; [13]): 1 h
k el (in vivo [6]; [13]): 0.000153 s⁻¹
AUC (in vivo [6]; [14]): 3.09 µM·h
Cmax (in vivo [6]; [14]): 1180 nM
MRT (in vivo [6]; [14]): 3.09 h
Tmax (in vivo [6]; [14]): 1 h
k el (in vivo [6]; [14]): 9.72e-05 s⁻¹
half-life (in vivo [6]; systemic plasma, po, 20 mg/kg): 2 h
AUC (in vivo [6]; male, plasma, iv, 5 mg/kg): 2.32 µM·h
MRT (in vivo [6]; male, plasma, iv, 5 mg/kg): 1.71 h
Vd (in vivo [6]; male, plasma, iv, 5 mg/kg): 4.32 L/kg
clearance (in vivo [6]; male, plasma, iv, 5 mg/kg): 42 mL/min/kg
AUC (in vivo [6]; [15]): 2 µM·h
Cmax (in vivo [6]; [15]): 730 nM
MRT (in vivo [6]; [15]): 2.51 h
Tmax (in vivo [6]; [15]): 1 h
half-life (in vivo [6]; [15]): 1.62 h
k el (in vivo [6]; [15]): 0.000119 s⁻¹
AUC (in vivo [6]; [16]): 1.09 µM·h
Cmax (in vivo [6]; [16]): 442 nM
MRT (in vivo [6]; [16]): 2.29 h
Tmax (in vivo [6]; [16]): 1 h
k el (in vivo [6]; [16]): 0.000139 s⁻¹
half-life (in vivo [6]; male, systemic plasma, po, 20 mg/kg): 1.37 h
concentration at 10 min (in vivo [7]; portal vein plasma): 967 nM
concentration at 30 min (in vivo [7]; portal vein plasma): 1090 ± 118 nM
concentration at 10 min (in vivo [7]; [17]): 218 ± 100 nM
concentration at 30 min (in vivo [7]; [17]): 245 ± 69 nM
concentration at 10 min (in vivo [7]; male, portal vein plasma): 439 nM
concentration at 30 min (in vivo [7]; male, portal vein plasma): 328 ± 41 nM
concentration at 10 min (in vivo [7]; [18]): 223 ± 76 nM
concentration at 30 min (in vivo [7]; [18]): 135 ± 41 nM
Compound: CC(=O)O[C@H]1C(=O)[C@@]2(C)[C@H]([C@H](OC(=O)c3ccccc3)[C@]3(O)C[C@H](OC(=O)[C@H](O)[C@@H](NC(=O)c4ccccc4)c4ccccc4)C(C)=C1C3(C)C)[C@]1(OC(C)=O)CO[C@@H]1C[C@@H]2O [paclitaxel]
